Drawing on PubChem BioAssay (NCI), this text covers TGI and GI50 for eight compounds.

Several values for one entry are separate records, joined by “and”; a condition that tells them apart may be missing. Equal entries are not always repeated.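 Dose response: 5 concentrations. Exposure: 48 h. Format: 96-well plates. Endpoint: linear interpolation; highest concentration if not reached. GI50: concentration for 50% inhibition of growth. The concentration for full growth arrest is given as TGI.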

Common to all, as to assay: NCI-60 cell line screen, 48 h
The subject of test [1] is HCT-116 colon.
Test [2] relates to HT29 colon.
Test [3] has as its system SF-268 CNS.
In test [4] the test system is SNB-75 CNS.
The subject of test [5] is A498 renal.
The test system of test [6] is EKVX NSCLC.
Test [7] deals with RXF 393 renal.
The test system of test [8] is HOP-62 NSCLC.
For test [9], the system named is HS 578T breast.
Test [10] deals with MCF7 breast.

In the case of `NCC(Cc1ccccc1)P(=O)(O)O` (configuration not stated), the TGI in test [1], in [2], in [3], in test [4], in test [5] and in test [6] was more than 100 µM throughout. Further, the TGI in test [7], in test [8], in test [9] and in test [10] was more than 100 µM throughout.

`N#Cc1cccc(C2C3=C(COC3=O)N(CCO)c3cc4c(cc32)CCC4)c1` (configuration not stated): the GI50 in [1] is 0.143 µM; in [2] it was 0.16 µM; in test [3], 0.368 µM; in test [4], 0.0393 µM; in [5], 0.0411 µM; in test [6], 0.259 µM. The GI50 in [7] is 0.119 µM; in test [8], 0.25 µM; in test [9] it was 0.141 µM; in [10] it was 0.0411 µM. Moreover, the TGI in [1] was 13.3 µM; in [2], more than 18.8 µM; in test [3], more than 50 µM; in test [5], 0.303 µM; in test [6], more than 50 µM; in test [7], more than 50 µM. Moreover, the TGI in [8] is more than 50 µM; in test [9], more than 13.5 µM; in test [10], more than 50 µM.

Take `O=C(/C=C/c1cccc(Oc2ccc(Cl)cc2)c1)c1ccccc1`: the GI50 is 20.6 µM in [1]; 26.2 µM in test [2]; 75.5 µM in [3]; 124 µM in test [4]; 163 µM in test [5]; 104 µM in test [6]. The GI50 was 44.2 µM in test [7], 113 µM in test [8], 109 µM in test [9] and 26.9 µM in test [10]. Besides, the TGI in test [1] was 41.7 µM; in test [2], 61.6 µM; in test [3] it was 209 µM; in test [4] it was 269 µM; in [5], 312 µM; in test [6], 261 µM. Also, the TGI in test [7] came out at 152 µM; in test [8] it was 272 µM; in test [9], 628 µM; in test [10], 118 µM.

For `CC/C(=C(/c1ccc(/C=C/C(=O)O)cc1)c1ccc2[nH]ncc2c1)c1ccc(F)cc1Cl`, the GI50 in [1] is 7.45 µM; in test [2], 13.3 µM; in test [3] it was 11.9 µM; in [4], 6.91 µM; in [5], 4.75 µM; in test [6], 13.2 µM. Besides, the GI50 was 5.31 µM in test [7], 9.98 µM in test [8] and 8.63 µM in [9]. Also, the TGI in test [1] is 20.8 µM; in test [2], 32.4 µM; in test [3] it was 27.4 µM; in [4], 26.3 µM; in [5] it was 17.9 µM; in test [6], 32.3 µM. In addition, the TGI in [7] came out at 16.3 µM; in test [8], 26.5 µM; in test [9] it was 38.7 µM; in test [10], 15.4 µM.

For the compound `N=C(N)c1ccc(OCCCCCOc2ccc(C(=N)N)cc2)cc1`, the GI50 was 4.59 µM in test [1]; 5.05 µM and 15.8 µM and 35.5 µM in [2]; 4.48 µM in test [3]; 7.24 µM in test [5]; 8.89 µM in test [6]; 6.75 µM in test [7]. Besides, the GI50 was 3.38 µM in [8], 7.64 µM in [9] and 2.59 µM in [10]. The TGI was > 50 µM and 37.8 µM and > 100 µM in test [1]; > 50 µM and 60.4 µM and > 100 µM in [2]; 13.6 µM and 34.2 µM and 37.7 µM in test [3]; 33.1 µM and 18.3 µM and > 100 µM in test [4]; more than 50 µM in [5]; > 50 µM and 45.5 µM and 72.6 µM in [6]. Also, the TGI in test [7] is 17.5 µM and 38.6 µM; in test [8], 10.6 µM and 32.8 µM and 30.3 µM; in test [9], 32.2 µM and 33 µM and 38.5 µM; in test [10] it was 14.4 µM and 25.9 µM and 28.5 µM.

Turning to `CC1=NN(c2nc(N)nc(/C=C\c3ccccc3)n2)C(C)(C)C1`, the GI50 was 2.76 µM in [1]; 2.47 µM in [2]; 6.1 µM in test [3]; 6.36 µM in test [4]; 5.58 µM in test [5]; 12.5 µM in test [6]. For the same compound, the GI50 is 5.8 µM in test [7], 14.9 µM in [8], 13.5 µM in test [9] and 8 µM in [10]. Also, the TGI in test [1] was 14.2 µM; in test [2], 14 µM; in [3], 24.4 µM; in [4], 25.6 µM; in test [5], 20.7 µM; in test [6] it was 45.8 µM. Besides, the TGI in [7] came out at 20.1 µM; in [8], 29.7 µM; in test [9] it was 77.5 µM; in [10], 25.5 µM.

For the compound `CC(C)C/C(=N\NC(=O)c1ccncc1)c1cc(Cl)ccc1O`, the GI50 in test [1] is 0.244 µM; in [2] it was 0.441 µM; in test [3], 0.399 µM; in test [4], 11.6 µM; in test [5] it was 2.12 µM; in test [6], 0.312 µM. Further, the GI50 is 2.37 µM in test [7], 0.465 µM in [8], 14.8 µM in test [9] and 0.484 µM in [10]. The TGI in [1] was 11 µM; in test [2], more than 100 µM; in [3], more than 76.6 µM; in test [4], more than 100 µM; in test [5], 45.7 µM; in [6] it was 25.3 µM. For the same compound, the TGI is more than 41 µM in [7], 64.8 µM in test [8], more than 87.1 µM in test [9] and 12.3 µM in test [10].

Take `CCN(CC)CCS(=O)(=O)CCNc1ccnc2cc(Cl)ccc12`: the GI50 in test [1] is 0.834 µM; in test [2], 0.868 µM; in test [3], 2.86 µM; in [4], 2.07 µM; in test [5] it was 2.25 µM; in test [6] it was 4.31 µM. In addition, the GI50 in [7] was 1.32 µM; in [8], 4.99 µM; in [9], 4.07 µM; in test [10], 1.86 µM. Moreover, the TGI in [1] is 4.63 µM; in test [2], 2.29 µM; in test [3] it was more than 49.5 µM; in [4], more than 29 µM; in [5] it was 8.28 µM; in test [6], more than 46.1 µM. In addition, the TGI was 5.8 µM in test [7], more than 100 µM in [8], more than 100 µM in [9] and more than 33.8 µM in test [10].
